What was measured:
[1] = Volatility of prior-art nitrification inhibitor; type: physicochemical; details: statement in words on the prior-art compound
Source text: Sharma et al. (J P Sharma, H K Taneja, S S Tomar Pesticide Research Journal, 2006, 18(1), 7-11) inter alia discloses 3-ethoxy-5-methylpyrazole as nitrification inhibitor.

[2] = Stability (recovery experiment) of nitrification inhibitor on treated fertilizer granules; type: physicochemical; details: dose NI 1 % NH4N; for NI on fertilizer granules [%] after storage 4 weeks 20° C.: open beaker, 50% rH; for NI on fertilizer granules [%] initial: sample stored at -18° C.
Experimental: Examples 2 and 3 were further tested with regard to Comparative Example 1 in terms of their stability (recovery experiment)
Ammonium Sulphate Nitrate (ASN) fertilizer granules and Diammonium phosphate (DAP) fertilizer granules were treated with liquid preparations of the Nitrification Inhibitor (NI) of example 2 and 3 and Comparative Example 1.
For the recovery experiment, a small amount (˜10g) of each treated fertilizer sample was filled into a closed glass vial and stored at −18° C. Another 250 g of each treated fertilizer sample were filled into an open glass beaker and stored at 20° C. and 50% relative humidity (rH). After four weeks of storage, 50g of the samples stored at 20° C. and 50% rH were drawn from the bottom and analyzed by HPCL for NI content in comparison to the −18° C. sample. The recovery is given in % as ratio of the NI content of the 20° C. sample divided by the NI content of the −18° C. sample.

[3] = tested on: nitrification (soil Limburgerhof, microbial biomass); experiment: Comparison of % NH4-N recovery in soil incubation, data pooled from different trials; details: average pooled from different trials
Experimental: Examples 2 and 3 were further tested with regard to Comparative Example 1 in terms of the % NH4—N recovery. 100 g Soil (soil Limburgerhof with pH(CaCl2) 6.8; 73% sand, 23% silt, 4% clay, which is classified according to FAO as a sandy loam) is filled into 500 ml plastic bottles and is moistened to 50% water holding capacity. The soil is incubated at 20° C. for two weeks prior to the experiments to activate the microbial biomass. 1 ml Test solution, containing the compounds of formula I or the comparative example in the appropriate concentration (0.3 or 1% (w/w) of fertilized NH4—N), and 10 mg nitrogen in the form of ammoniumsulfate-N(NH4—N) is added to the soil and everything mixed well. Unfertilized controls received 1 ml pure water. Bottles are capped but loosely to allow air exchange. The bottles are then incubated at 20° C. for 14 days. For analysis, 300 ml of a 1% K2SO4-solution is added to the bottle containing the soil and shaken for 2 hours in a horizontal shaker at 150 rpm. Then the whole solution is filtered through a filter (Macherey-Nagel Filter MN 807%). Ammonium content is then analyzed in the filtrate using an autoanalyzer. Ammonium was quantified via an indophenol blue dye at 660 nm. The nitrification inhibition is expressed as % of NH4—N recovery from fertilized NH4—N (100%) after subtraction of unfertilized control soil. For comparison of the % NH4—N recovery of the compounds of the invention, i.e. Examples 2 and 3, with comparative example 1 as shown below from different trials, the standard deviation of a common treatment of all trials with DMPP (3,4-dimethylpyrazole phosphate) was calculated. Based on this calculation the data from different trials can be pooled together to calculate an average % NH4—N recovery for the compounds of the invention and the comparative compound as shown below.

[4] = tested on: nitrification (soil Limburgerhof, microbial biomass); experiment: Inhibition of nitrification in soil incubation (NH4-N recovery and NO3-N formation); details: 14 days after treatment, 20° C.
Experimental: The soil is incubated at 20° C. for two weeks prior to the experiments to activate the microbial biomass. 1 ml test solution, containing the compounds of formula I in the appropriate concentration (usually 0.3 or 1% (w/w) of fertilized NH4—N), and 10 mg nitrogen in the form of ammoniumsulfate-N(NH4—N) is added to the soil and everything mixed well. Unfertilized controls received 1 ml pure water. Bottles are capped but loosely to allow air exchange. The bottles are then incubated at 20° C. for 0 and 14 days. For analysis, 300 ml of a 1% K2SO4-solution is added to the bottle containing the soil and shaken for 2 hours in a horizontal shaker at 150 rpm. Then the whole solution is filtered through a filter (Macherey-Nagel Filter MN 807%). Ammonium and nitrate content is then analyzed in the filtrate using an autoanalyzer. Ammonium was quantified via an indophenol blue dye at 660 nm, and nitrate via an azo dye at 540 nm. The nitrification inhibition is expressed as % of NH4—N recovery from fertilized NH4—N (100%) after subtraction of unfertilized control soil, and as % inhibition of NO3—N formation (% reduction of NO3^− production) according to the formula: [formula]

[5] = applied dose 0.3 wt.-% relative to NH4-N
[6] = applied dose 1.0 wt.-% relative to NH4-N

| SMILES | volatility [1] | NI on fertilizer granules [%] after storage 4 weeks 20° C. ([2]; ASN fertilizer granules) [%] | NI on fertilizer granules [%] initial ([2]; ASN fertilizer granules) [%] | NI on fertilizer granules [%] after storage 4 weeks 20° C. ([2]; DAP fertilizer granules) [%] | NI on fertilizer granules [%] initial ([2]; DAP fertilizer granules) [%] | % NH4-N recovery after 14 days ([3]; 0.3 wt.-% relative to NH4-N) [%] | % NH4-N recovery after 14 days ([3]; 1 wt.-% relative to NH4-N) [%] | average inhibition % of NO3 DAT14 (n = 4) [4, 5] [%] | average recovery % NH4-N DAT14 (n = 4) [4, 5] [%] | average inhibition % of NO3 DAT14 (n = 4) [4, 6] [%] | average recovery % NH4-N DAT14 (n = 4) [4, 6] [%] |
| --- | --- | --- | --- | --- | --- | --- | --- | --- | --- | --- | --- |
| CCOc1cc(C)[nH]n1 [3-ethoxy-5-methylpyrazole] | high volatility | – | – | – | – | – | – | – | – | – | – |
| CCCCCCCOC(=O)n1nc(C)cc1OC [Example 1] | – | – | – | – | – | – | – | 44 | 40 | 82 | 68 |
| COc1cc(C)n(C(=O)C2CCOCC2)n1 [Example 4] | – | – | – | – | – | – | – | 33 | 40 | 82 | 66 |
| COc1cc(C)n(C(=O)c2cccc(F)c2)n1 [Example 5] | – | – | – | – | – | – | – | 20 | 25 | 50 | 39 |

Further lines, with some results ahead:

| volatility [1] | NI on fertilizer granules [%] after storage 4 weeks 20° C. ([2]; ASN fertilizer granules) [%] | NI on fertilizer granules [%] initial ([2]; ASN fertilizer granules) [%] | NI on fertilizer granules [%] after storage 4 weeks 20° C. ([2]; DAP fertilizer granules) [%] | NI on fertilizer granules [%] initial ([2]; DAP fertilizer granules) [%] | SMILES | % NH4-N recovery after 14 days ([3]; 0.3 wt.-% relative to NH4-N) [%] | % NH4-N recovery after 14 days ([3]; 1 wt.-% relative to NH4-N) [%] | average inhibition % of NO3 DAT14 (n = 4) [4, 5] [%] | average recovery % NH4-N DAT14 (n = 4) [4, 5] [%] | average inhibition % of NO3 DAT14 (n = 4) [4, 6] [%] | average recovery % NH4-N DAT14 (n = 4) [4, 6] [%] |
| --- | --- | --- | --- | --- | --- | --- | --- | --- | --- | --- | --- |
| – | 0.000 | 0.034 | 0.057 | 0.110 | CCOc1cc(C)nn1CO [Comparative Example 1, reference compound] | 36 | 46 | – | – | – | – |
| – | – | – | 0.015 | 0.023 | CCCCCCCOC(=O)n1nc(OC)cc1C [Example 2] | 47 | 58 | 60 | 55 | 89 | 66 |
| – | 0.113 | 0.116 | 0.044 | 0.052 | CCOC(=O)CC(=O)n1nc(OC)cc1C [Example 3] | 41 | 64 | 60 | 49 | 90 | 71 |

Source: US20240270658A1, “Use of an N-Functionalized Alkoxy Pyrazole Compound as Nitrification Inhibitor” (BASF SE, priority 2021, published 2024)
